Reference: ChEMBL document CHEMBL4052625, “The evaluation of 1,4-benzoquinones as inhibitors of human monoamine oxidase” (Eur J Med Chem, 2017)

Key:
[1] = molecular target: T1, Amine oxidase [flavin-containing] B (Homo sapiens, UniProt P27338); assay: Inhibition of human liver mitochondria MAO-B using 1-methyl-4-phenyl-1,2,3,6-tetrahydropyridine as substrate after 15 mins by spectrophotometric analysis
T1 sequence (P27338 whole entry): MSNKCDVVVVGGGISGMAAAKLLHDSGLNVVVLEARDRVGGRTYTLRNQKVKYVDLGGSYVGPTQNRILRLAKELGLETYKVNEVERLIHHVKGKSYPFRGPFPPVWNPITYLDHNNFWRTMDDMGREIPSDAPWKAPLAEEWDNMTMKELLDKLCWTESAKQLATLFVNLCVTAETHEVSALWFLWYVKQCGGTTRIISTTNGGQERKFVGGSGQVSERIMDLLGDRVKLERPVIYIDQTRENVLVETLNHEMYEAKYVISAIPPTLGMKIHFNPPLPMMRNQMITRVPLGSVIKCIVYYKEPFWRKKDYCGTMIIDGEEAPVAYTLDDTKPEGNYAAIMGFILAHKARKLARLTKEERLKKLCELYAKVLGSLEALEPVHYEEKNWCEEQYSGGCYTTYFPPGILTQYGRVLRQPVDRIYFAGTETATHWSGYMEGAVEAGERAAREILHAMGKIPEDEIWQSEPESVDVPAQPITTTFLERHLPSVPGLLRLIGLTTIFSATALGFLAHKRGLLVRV

[2] = molecular target: T2, Amine oxidase [flavin-containing] A (Homo sapiens, UniProt P21397); assay: Inhibition of human gastrointestinal mitochondria MAO-A using 1-methyl-4-(1-methylpyrrol-2-yl)-1,2,3,6-tetrahydropyridine as substrate after 30 mins by spectrophotometric analysis
T2 sequence (P21397 whole entry): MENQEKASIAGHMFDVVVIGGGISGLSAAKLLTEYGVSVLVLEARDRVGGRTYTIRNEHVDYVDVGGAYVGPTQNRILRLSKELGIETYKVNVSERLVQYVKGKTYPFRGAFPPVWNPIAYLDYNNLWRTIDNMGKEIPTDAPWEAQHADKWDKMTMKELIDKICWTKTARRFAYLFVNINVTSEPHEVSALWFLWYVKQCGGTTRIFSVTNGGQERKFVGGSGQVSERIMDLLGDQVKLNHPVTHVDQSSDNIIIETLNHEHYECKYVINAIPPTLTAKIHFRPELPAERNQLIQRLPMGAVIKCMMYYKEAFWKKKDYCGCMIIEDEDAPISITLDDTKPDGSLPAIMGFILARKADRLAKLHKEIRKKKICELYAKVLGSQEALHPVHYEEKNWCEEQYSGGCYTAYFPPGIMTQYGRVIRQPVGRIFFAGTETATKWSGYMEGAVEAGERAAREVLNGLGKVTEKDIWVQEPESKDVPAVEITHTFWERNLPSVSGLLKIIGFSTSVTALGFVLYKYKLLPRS

[3] = molecular target: T2, Amine oxidase [flavin-containing] A; assay: Irreversible inhibition of recombinant human MAO-A expressed in baculovirus infected BTI insect cell microsomes assessed as residual activity using kynuramine as substrate at 13 uM preincubated for 15 mins with subsequent dialysis for 24 hrs followed by substrate addition measured after 20 mins by fluorescence spectroscopy relative to negative control; details: read-out: INH
[4] = molecular target: T2, Amine oxidase [flavin-containing] A; assay: Competitive inhibition of human brain mitochondria MAO-A using kynuramine as substrate by Lineweaver-Burk analysis
[5] = molecular target: T1, Amine oxidase [flavin-containing] B; assay: Non-competitive inhibition of human brain mitochondria MAO-B using kynuramine as substrate by Lineweaver-Burk analysis
[6] = molecular target: T2, Amine oxidase [flavin-containing] A; assay: Inhibition of recombinant human MAO-A expressed in baculovirus infected BTI insect cell microsomes using kynuramine as substrate after 20 mins by fluorescence spectroscopy
[7] = molecular target: T1, Amine oxidase [flavin-containing] B; assay: Inhibition of recombinant human MAO-B expressed in baculovirus infected BTI insect cell microsomes using kynuramine as substrate after 20 mins by fluorescence spectroscopy
[8] = species: Homo sapiens; assay: Selectivity index, ratio of IC50 for recombinant human MAO-B to IC50 for recombinant human MAO-A expressed in baculovirus infected BTI insect cell microsomes

Row | SMILES | Ki [1] | Ki [2] | activity at 13 µM [3] | Ki [4] | Ki [5] | IC50 [6] | IC50 [7] | Ratio IC50 [8]
1 | CC1=C(C)C(=O)c2cc(C)ccc2C1=O | 6 µM | 3 µM | – | – | – | – | – | –
2 | C#CCN(C)Cc1ccccc1 [PARGYLINE] | – | – | 0.1 to 1.6% | – | – | – | – | –
3 | O=C1C=CC(=O)C=C1 [BENZOQUINONE] | – | – | – | 9.62 µM | 20.3 µM | 4.82 µM | 10.2 µM | 2.1
4 | O=C1C=CC(=O)C(Cc2ccccc2)=C1 | – | – | – | – | – | 5.37 µM | 23.2 µM | 4.3
5 | O=C1C=CC(=O)C(C2CCCC2)=C1 | – | – | – | – | – | 5.84 µM | 17.8 µM | 3
6 | O=C1C=CC(=O)C(c2ccccc2)=C1 | – | – | – | – | – | 5.03 µM | 7.87 µM | 1.6
7 | O=C1C=CC(=O)C(OCc2ccccc2)=C1 | – | – | – | – | – | 13.2 µM | 3.69 µM | 0.3
